The values that follow come from US10959432B2, “Microbiocidal oxadiazole derivatives” (Syngenta Participations AG, priority 2016, dated 2021).

The structures appear in SMILES notation. Where only a bound is given, the exact number is not on record here.

The test system of experiment [1] is Phakopsora pachyrhizi. The experiment is described as follows: Fungicidal activity against Phakopsora pachyrhizi / soybean / leaf disc preventative (Asian soybean rust). It is filed as in vivo. The settings on record: foliar, 200 ppm in the applied formulation, soybean leaf disks, preventative (inoculated one day after application), assessed 12 to 14 days after application, read-out: disease control compared to untreated control leaf disks. As for the experimental part: (§1) Leaf disks or leaf segments of various plant species are cut from plants grown in a greenhouse. The cut leaf disks or segments are placed in multiwell plates (24-well format) onto water agar. The leaf disks are sprayed with a test solution before (preventative) or after (curative) inoculation. Compounds to be tested are prepared as DMSO solutions (max. 10 mg/ml) which are diluted to the appropriate concentration with 0.025% Tween20 just before spraying. The inoculated leaf disks or segments are incubated under defined conditions (temperature, relative humidity, light, etc.) according to the respective test system. A single evaluation of disease level is carried out 3 to 14 days after inoculation, depending on the pathosystem. Percent disease control relative to the untreated check leaf disks or segments is then calculated. General Examples of Liquid Culture Tests in Well Plates:
Example 3: Fungicidal Activity Against Phakopsora pachyrhizi/Soybean/Leaf Disc Preventative (Asian Soybean Rust)
Soybean leaf disks are placed on water agar in multiwell plates (24-well format) and sprayed with the formulated test compound diluted in water. One day after application leaf discs are inoculated by spraying a spore suspension on the lower leaf surface. After an incubation period in a climate cabinet of 24-36 hours in darkness at 20° C. and 75% rh leaf disc are kept at 20° C. with 12 h light/day and 75% rh. The activity of a compound is assessed as percent disease control compared to untreated when an appropriate level of disease damage appears in untreated check leaf disks (12 to 14 days after application).
(§2) The following compounds at 200 ppm in the applied formulation give at least 80% disease control in this test when compared to untreated control leaf disks under the same conditions, which show extensive disease development.

Experiment [2] relates to Puccinia recondita f. sp. tritici. In words: Fungicidal activity against Puccinia recondita f. sp. tritici / wheat / leaf disc curative (brown rust). It is filed as in vivo. The note with it: foliar, 200 ppm in the applied formulation, wheat leaf segments cv. Kanzler, curative (applied 1 day after inoculation), assessed 6 to 8 days after application, read-out: disease control compared to untreated control leaf disks. Here is the method: as §1
Example 2: Fungicidal Activity Against Puccinia recondita f. sp. Tritici/Wheat/Leaf Disc Curative (Brown Rust)
Wheat leaf segments cv. Kanzler are placed on agar in multiwell plates (24-well format). The leaf segments are then inoculated with a spore suspension of the fungus. Plates were stored in darkness at 19° C. and 75% relative humidity. The formulated test compound diluted in water was applied 1 day after inoculation. The leaf segments were incubated at 19° C. and 75% relative humidity under a light regime of 12 hours light/12 hours darkness in a climate cabinet and the activity of a compound was assessed as percent disease control compared to untreated when an appropriate level of disease damage appears in untreated check leaf segments (6 to 8 days after application).
as §2

For experiment [3], the system named is Glomerella laqenarium (Colletotrichum lagenarium). In words: Fungicidal activity against Glomerella lagenarium (Colletotrichum lagenarium) liquid culture / cucumber / preventative (anthracnose). It is filed as cell-based. The settings on record: Colletotrichum orbiculare; 20 ppm in the applied formulation; liquid culture in PDB, 24° C., 3 to 4 days after application; read-out: disease control compared to untreated control (inhibition of growth measured photometrically). As for the experimental part:
Mycelia fragments or conidia suspensions of a fungus prepared either freshly from liquid cultures of the fungus or from cryogenic storage, are directly mixed into nutrient broth. DMSO solutions of the test compound (max. 10 mg/ml) are diluted with 0.025% Tween20 by a factor of 50 and 10 μl of this solution is pipetted into a microtiter plate (96-well format). The nutrient broth containing the fungal spores/mycelia fragments is then added to give an end concentration of the tested compound. The test plates are incubated in the dark at 24° C. and 96% relative humidity. The inhibition of fungal growth is determined photometrically after 2 to 7 days, depending on the pathosystem, and percent antifungal activity relative to the untreated check is calculated.
Example 4: Fungicidal Activity Against Glomerella laqenarium (Colletotrichum lagenarium) Liquid Culture/Cucumber/Preventative (Anthracnose)
Conidia of the fungus from cryogenic storage are directly mixed into nutrient broth (PDB—potato dextrose broth). After placing a (DMSO) solution of test compound into a microtiter plate (96-well format), the nutrient broth containing the fungal spores is added. The test plates are incubated at 24° C. and the inhibition of growth is measured photometrically 3 to 4 days after application.
The following compounds at 20 ppm in the applied formulation give at least 80% disease control in this test when compared to untreated control under the same conditions, which show extensive disease development.

Experiment [4] concerns Puccinia recondita f. sp. tritici. In words: Fungicidal activity against Puccinia recondita f. sp. tritici / wheat / leaf disc preventative (brown rust). Type of experiment: in vivo. The settings on record: foliar, 200 ppm in the applied formulation, wheat leaf segments cv. Kanzler, preventative (inoculated 1 day after application), assessed 7 to 9 days after application, read-out: disease control compared to untreated control leaf disks. Here is the method: as §1
Example 1: Fungicidal Activity Against Puccinia recondita f. sp. tritici/Wheat/Leaf Disc Preventative (Brown Rust)
Wheat leaf segments cv. Kanzler were placed on agar in multiwell plates (24-well format) and sprayed with the formulated test compound diluted in water. The leaf disks were inoculated with a spore suspension of the fungus 1 day after application. The inoculated leaf segments were incubated at 19C and 75% relative humidity (rh) under a light regime of 12 hours light/12 hours darkness in a climate cabinet and the activity of a compound was assessed as percent disease control compared to untreated when an appropriate level of disease damage appears in untreated check leaf segments (7 to 9 days after application).
as §2

`CC(CCO)NC(=O)c1ccc(-c2noc(C(F)(F)F)n2)cc1F` (stereo not shown) [Compound 3b.17, 2-fluoro-N-(3-hydroxy-1-methyl-propyl)-4-[5-(trifluoromethyl)-1,2,4-oxadiazol-3-yl]benzamide]: the pest or weed control at 200 ppm in experiment [1] and in experiment [2] was at least 80% each time.

With `CN(C(=O)c1ccc(-c2noc(C(F)(F)F)n2)cc1)c1ccccn1` [Compound 5a.4, N-methyl-N-(2-pyridyl)-4-[5-(trifluoromethyl)-1,2,4-oxadiazol-3-yl]benzamide], the pest or weed control at 200 ppm in experiment [1] and in experiment [2] was at least 80% in each case. In addition, the inhibition at 20 ppm in experiment [3] is at least 80%.

With `O=C(NCCCCO)c1ccc(-c2noc(C(F)(F)F)n2)cc1` [Compound 3a.24, N-(4-hydroxybutyl)-4-[5-(trifluoromethyl)-1,2,4-oxadiazol-3-yl]benzamide], the pest or weed control at 200 ppm in experiment [1], in experiment [2] and in experiment [4] was at least 80% in each case. Moreover, the inhibition at 20 ppm in experiment [3] is at least 80%.

Turning to `CCOCCNC(=O)c1ccc(-c2noc(C(F)(F)F)n2)cc1F` [Compound 3b.39, N-(2-ethoxyethyl)-2-fluoro-4-[5-(trifluoromethyl)-1,2,4-oxadiazol-3-yl]benzamide], the pest or weed control at 200 ppm in experiment [1], in experiment [2] and in experiment [4] was at least 80% throughout. The inhibition at 20 ppm in experiment [3] is at least 80%.

As to `CC(C)CN(C)C(=O)c1ccc(-c2noc(C(F)(F)F)n2)cc1` [Compound 3a.13, N-isobutyl-N-methyl-4-[5-(trifluoromethyl)-1,2,4-oxadiazol-3-yl]benzamide], the pest or weed control at 200 ppm in experiment [1], in experiment [2] and in experiment [4] was at least 80% each time. Moreover, in experiment [3], the inhibition at 20 ppm is at least 80%.

As for `CC(C)C(CO)NC(=O)c1ccc(-c2noc(C(F)(F)F)n2)cc1F` (stereo not shown) [Compound 3b.18, 2-fluoro-N-[1-(hydroxymethyl)-2-methyl-propyl]-4-[5-(trifluoromethyl)-1,2,4-oxadiazol-3-yl]benzamide], in experiment [2], the pest or weed control at 200 ppm was at least 80%. Also, in experiment [3], the inhibition at 20 ppm is at least 80%.

`CN(C(=O)c1ccc(-c2noc(C(F)(F)F)n2)cc1F)C(C)(C)C` [Compound 3b.37, N-tert-butyl-2-fluoro-N-methyl-4-[5-(trifluoromethyl)-1,2,4-oxadiazol-3-yl]benzamide]: the pest or weed control at 200 ppm in experiment [1], in experiment [2] and in experiment [4] was at least 80% throughout. In experiment [3], the inhibition at 20 ppm is at least 80%.

Take `O=C(NCCCCCO)c1ccc(-c2noc(C(F)(F)F)n2)cc1` [Compound 3a.21, N-(5-hydroxypentyl)-4-[5-(trifluoromethyl)-1,2,4-oxadiazol-3-yl]benzamide]: the pest or weed control at 200 ppm in experiment [1] and in experiment [2] was at least 80% in each case.

For the compound `CC(C#N)(NC(=O)c1ccc(-c2noc(C(F)(F)F)n2)cc1F)C1CC1` (stereo not shown) [Compound 2b.9, N-(1-cyano-1-cyclopropyl-ethyl)-2-fluoro-4-[5-(trifluoromethyl)-1,2,4-oxadiazol-3-yl]benzamide], the pest or weed control at 200 ppm in experiment [1], in experiment [2] and in experiment [4] was at least 80% in each case.

On to `CN(CCCO)C(=O)c1ccc(-c2noc(C(F)(F)F)n2)cc1` [Compound 3a.6, N-(3-hydroxypropyl)-N-methyl-4-[5-(trifluoromethyl)-1,2,4-oxadiazol-3-yl]benzamide], for which the pest or weed control at 200 ppm in experiment [1] and in experiment [2] was at least 80% each time.

`CC(C)C(CO)NC(=O)c1ccc(-c2noc(C(F)(F)F)n2)cc1` (stereo not shown) [Compound 3a.18, N-[1-(hydroxymethyl)-2-methyl-propyl]-4-[5-(trifluoromethyl)-1,2,4-oxadiazol-3-yl]benzamide]: the pest or weed control at 200 ppm in experiment [1] and in experiment [2] was at least 80% each time. For the same compound, the inhibition at 20 ppm in experiment [3] is at least 80%.

For `O=C(NCCCO)c1ccc(-c2noc(C(F)(F)F)n2)cc1F` [Compound 3b.23, 2-fluoro-N-(3-hydroxypropyl)-4-[5-(trifluoromethyl)-1,2,4-oxadiazol-3-yl]benzamide], the pest or weed control at 200 ppm in experiment [1] and in experiment [2] was at least 80% each time. Besides, the inhibition at 20 ppm in experiment [3] is at least 80%.

Turning to `CN(CCCO)C(=O)c1ccc(-c2noc(C(F)(F)F)n2)cc1F` [Compound 3b.9, 2-fluoro-N-(3-hydroxypropyl)-N-methyl-4-[5-(trifluoromethyl)-1,2,4-oxadiazol-3-yl]benzamide], the pest or weed control at 200 ppm in experiment [1] and in experiment [2] was at least 80% each time.

Regarding `CC(CCO)NC(=O)c1ccc(-c2noc(C(F)(F)F)n2)cc1` (stereo not shown) [Compound 3a.15, N-(3-hydroxy-1-methyl-propyl)-4-[5-(trifluoromethyl)-1,2,4-oxadiazol-3-yl]benzamide], the pest or weed control at 200 ppm in experiment [1] and in experiment [2] was at least 80% in each case.

Take `CN(C(=O)c1ccc(-c2noc(C(F)(F)F)n2)cc1)C1CCN(C(=O)OC(C)(C)C)C1` (stereo not shown) [Compound 1a.1, tert-butyl 3-[methyl-[4-[5-(trifluoromethyl)-1,2,4-oxadiazol-3-yl]benzoyl]amino]pyrrolidine-1-carboxylate]: the pest or weed control at 200 ppm in experiment [1] and in experiment [4] was at least 80% throughout. Moreover, the inhibition at 20 ppm in experiment [3] is at least 80%.

In the case of `O=C(NCCCCO)c1ccc(-c2noc(C(F)(F)F)n2)cc1F` [Compound 3b.26, 2-fluoro-N-(4-hydroxybutyl)-4-[5-(trifluoromethyl)-1,2,4-oxadiazol-3-yl]benzamide], the pest or weed control at 200 ppm in experiment [1] and in experiment [4] was at least 80% in each case. Further, the inhibition at 20 ppm in experiment [3] is at least 80%.

`CCOC(=O)CC(C)NC(=O)c1ccc(-c2noc(C(F)(F)F)n2)cc1` (stereo not shown) [Compound 3a.26, ethyl 3-[[4-[5-(trifluoromethyl)-1,2,4-oxadiazol-3-yl]benzoyl]amino]butanoate]: the pest or weed control at 200 ppm in experiment [1] and in experiment [4] was at least 80% each time. For the same compound, the inhibition at 20 ppm in experiment [3] was at least 80%.

As for `CCCCCCNC(=O)c1ccc(-c2noc(C(F)(F)F)n2)cc1F` [Compound 3b.31, 2-fluoro-N-hexyl-4-[5-(trifluoromethyl)-1,2,4-oxadiazol-3-yl]benzamide], the pest or weed control at 200 ppm in experiment [1] and in experiment [2] was at least 80% throughout. Further, in experiment [3], the inhibition at 20 ppm was at least 80%.

Regarding `CCOC(=O)CC(C)NC(=O)c1ccc(-c2noc(C(F)(F)F)n2)cc1F` (stereo not shown) [Compound 3b.28, ethyl 3-[[2-fluoro-4-[5-(trifluoromethyl)-1,2,4-oxadiazol-3-yl]benzoyl]amino]butanoate], the pest or weed control at 200 ppm in experiment [2] and in experiment [4] was at least 80% throughout. In addition, the inhibition at 20 ppm in experiment [3] was at least 80%.

As usually defined, the inhibition is the share of the control response that was lost under treatment.
